Source: patent US6855549B1, “Methods and compositions for increasing the infectivity of gene transfer vectors” (The University of Iowa Research Foundation, priority 1998, dated 2005)
Entries after “also recorded” stand apart in the source; their conditions may differ. Read-outs that look alike come from different tables or passages of the source.

Key:
[1] = test system: lung epithelial layer; experiment: Fluorescent bead penetration of lung epithelium after EGTA instillation; type: in vivo, rat; details: 3 or 12 mM EGTA, 100 μl into left lobe, one hour
Protocol: Preliminary studies were performed in rats to test the feasibility of using hypotonic solutions with EGTA to increase transepithelial permeability in vivo. 3 wk old rats were tracheotomized and a small caliber PE catheter inserted into the left lobe of the lung. 100 μl of 3 or 12 mM EGTA in water or PBS was mixed with […] fluorescent beads (a marker for viral particles) and instilled into the lungs. One hour later the animals were sacrificed and lung, tissue sections examined under fluorescence microscopy to determine if the fluorescent beads penetrated the epithelial layer. In the PBS control animal, fluorescent particles were only noted in the airway lunen. […] It also was asked if animals treated with EGTA/H2O developed changes in lung morphology. Animals received PBS or 12, 60, or 120 mM EGTA/water into the left lobe of the lung and 1 wk later were sacrificed and H & E stained lung tissues examined.

[2] = test system: human nasal epithelium; experiment: Nasal transepithelial voltage (Vt) in human volunteers; type: in vivo
Protocol: Human studies. The Vt across the nasal epithelium was measured in 6 volunteers using previously described methods (Zabner et al., 1996). The protocol followed was identical to that described above for the rabbit studies. […] The catheter was then left in that position for the entire recording period. The solutions were administered through the second lumen in the following order: 1) Normal saline for 5 min; 2) Sterile water with 10 mM EGTA or 10 mM EDTA for 10 min; 3) Nommal saline with 10 mM EGTA or 10 mM EDTA for 5 min; and 4) Normal saline with 10 mM, EGTA or 10 mM EDTA plus […] amiloride for 5 min. Measurements of Vt were read by two investigators who were blinded and wvere checked by a third investigator if there was a discrepancy of more than 2 mV. Disruption of epithelial junctions was assessed by detecting a fall in nasal Vt after perfusion with the chelator, and by the loss of amiloride-sensitive Vt after perfusion with the. chelator solution.

[3] = test system: polarized human bronchial epithelial cells; experiment: Transepithelial resistance of polarized bronchial cultures after hypotonic EGTA; type: cell-based; details: 3 mM EGTA-H2O, 10 min, 37° C., immediate
Protocol: For the UV irradiation studies, Millicell inserts were put transiently into empty 100-mm tissue culture plates (apical side up) and exposed to 25 J/m^2 of UV light (254 nm). After irradiation, the Millicell inserts were quickly returned to plates containing Ultraser G culture medium on the basolateral side. Infections with rAAV were performed immediately following UV irradiation by application of 5×10^9 rAAV particles in 100 μl to either the apical or basolateral side of the support membrane as described above. Keratinocyte growth factor (KGF) treatment was performed at a final concentration of 100 ng/ml by addition to the basolateral culture medium for two sequential 24-hr incubations prior to AAV infection. Transient disruption of tight junctions was achieved by treating polarized cells with 3 mM EGTA in water for 10 min. After hypotonic EGTA treatment, cultures were washed twice with culture medium and infected with 5×10^9 rAAV particles in […] on either the apical or basolateral side of support membranes.
The transepithelial resistance of primary airway cultures was monitored with an ohm meter (EVOM; World Precision Instruments, Sarasota Fla.), as previously described (Wang et al., 1998). […] Electrodes were placed in both the mucosal and serosal compartments of the Millicell inserts and the resistance across the epithelia was recorded.

[4] = test system: human bronchial epithelial cells; type: cell-based
Protocol: Primary human airway epithelial cells were collected by enzymatic digestion of bronchial samples from lung transplants as previously described (Kondo et al., 1991; Zabner et al., 1996). Isolated airway primary cells were seeded at a density of 5×10^5 cells/cm^2 onto collagen-coated Millicell-HA culture inserts (Millipore, Bedford, Mass.). Primary cultures were grown at the air-liquid interface for more than 2 wk, at which time differentiation into a mucociliary epithelium occurs. The culture medium, used to feed only the basolateral side of the cells, contained 49% Dulbecco's modified Eagle's medium (DMEM), 49% Ham's F12, and 2% Ultraser G (BioSepra, Cedex, France).
Recombinant AAV virus was produced by a CaPO4 co-transfection protocol and was purified through three rounds of isopycnic cesium chloride ultracentrifuigation, as previously described (Duan et al., 1997). The proviral plasmid, pCisAV.GFP3ori, was used to generate rAAV (AV.GFP3ori), which encoded the enhanced green fluorescent protein (EGFP) reporter gene under the transcriptional control of the cytomegalovirus (CVM) enhancer/promoter and simian virus 40 (SV40) polyadenylation signal (Duan et al., 1998). Recombinant viral stocks were heated at 58° C. for 60 min to inactivate contaminating helper adenovirus. Typical yields were 1×10^9 particles/μl, determined on the basis of DNA slot-blot hybridization assays against plasmid standards. The level of adenoviral contamination, as based on a second reporter assay for the recombinant adenovirus used for propagation (Ad.CMVAlkphos) (Duane et al., 1997), was less than 1 functional particle per 1×10^10 DNA particles of rAAV. Viral preparations were evaluated for the contamination of wild type AAV (wtAAV) by immunocytochemical staining of AV.GFP3ori/Ad.CMVLacZ (Duan et al., 1998)-coinfected 293 cells with anti-Rep antibodies (American Research Products, Belmont, Mass.). […] Transfection with Rep/Cap-encoding plasmids served as controls for antibody staining of Rep protein. Virus was dialyzed in phosphate-buffered saline (PBS) prior to application on primary airway cultures. […]

[5] = test system: differentiated human airway epithelia; type: cell-based
[6] = vector to apical surface with EGTA in vector buffer, 200 cells counted

Structure (SMILES): O=C(O)CN(CCOCCOCCN(CC(=O)O)CC(=O)O)CC(=O)O [EGTA]
- penetration of 100 nM fluorescent beads into epithelial layer [1]: beads were seen throughout the cell layer and close to the basement membrane
- adverse effects of nasal perfusion ([2]; 10 mM EGTA, volunteers): did not experience any adverse effects
- nasal Vt ([2]; H2O/chelator then chelator in saline, 10 mM): there was a significant decrease in the Vt
- amiloride-sensitive nasal Vt after EGTA treatment ([2]; n=6): EGTA treatment abolished the amiloride-sensitive Vt; also recorded: essentially no amiloride-sensitive Vt remained
- decrease in transepithelial resistance [3]: greater than 10 fold
- apical transduction after EGTA, lower than maximal basolateral level [4]: 20 fold
- rAAV transduction, EGTA and virus on basolateral side [4]: no significant differences were seen in the extent of rAAV
- integrity of the monolayers by light microscopy ([4]; 40 days after hypotonic/EGTA treatment): No significant differences were detected in the integrity of the monolayers
- effect on proliferation ([5]; application of H2O or EGTA to epithelia, control studies): had no effect on proliferation
- β-gal positive cells ([5]; pretreated with combination of water and EGTA 20 min, then vector, mean±SE, n=9): 20.3±2.5%
- β-gal positive cells ([5]; sequential water then EGTA in water 10 min each, then vector): 8±1.3%
- share of β-gal positive cells that are basal cells [5, 6]: 36%
- share of β-gal positive cells that are ciliated cells [5, 6]: 28%
- share of β-gal positive cells that are intermediate cells [5, 6]: 36%
- β-gal positive cells ([5]; water and EGTA 20 min, then vector containing EGTA, 3 days after delivery, mean±SE, n=9): 34.3±5.4%
